Literature values as cited in patent publication US20120282337A1, “Modified Release Formulation” (BOEHRINGER INGELHEIM INTERNATIONAL GMBH, priority 2006, published 2012).
Counter-ions that a name gives are not always drawn.

Experiments:
[1] = in vivo
dopamine D2 receptor = dopamine D2 receptor (Homo sapiens, UniProt P14416)
[2] = not given; remark: listed apart in the source

Chain of dopamine D2 receptor (P14416 whole entry, species assumed): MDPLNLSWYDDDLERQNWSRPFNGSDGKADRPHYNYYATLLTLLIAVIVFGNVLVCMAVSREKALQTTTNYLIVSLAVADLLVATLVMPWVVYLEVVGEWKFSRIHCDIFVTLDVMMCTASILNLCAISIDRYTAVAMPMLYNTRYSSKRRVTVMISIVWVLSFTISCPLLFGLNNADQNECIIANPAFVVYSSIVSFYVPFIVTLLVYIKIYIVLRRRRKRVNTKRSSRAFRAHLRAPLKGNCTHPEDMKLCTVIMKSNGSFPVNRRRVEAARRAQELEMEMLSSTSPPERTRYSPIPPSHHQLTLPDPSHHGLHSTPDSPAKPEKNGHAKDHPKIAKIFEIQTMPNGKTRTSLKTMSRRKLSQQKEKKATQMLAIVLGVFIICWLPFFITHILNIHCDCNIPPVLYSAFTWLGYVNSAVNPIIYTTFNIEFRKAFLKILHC

Row | solubility in buffer media (between pH 2 and pH 7.4) | Water solubility (water) | kinetics [1] | agonist type at dopamine D2 receptor (dopamine D2 receptor) | stability in solution ([2]; in solution) | stability in the solid state ([2]; solid state) | SMILES
1 | above 10 mg/ml | more than 20 mg/ml |  |  |  |  | CCCN[C@H]1CCc2nc(N)sc2C1 [Pramipexole dihydrochloride monohydrate, pramipexole dihydrochloride monohydrate]
2 |  |  | linear kinetics | full agonist | light sensitive | very stable | CCCN[C@H]1CCc2nc(N)sc2C1 [Pramipexole, (S)-2-Amino-4,5,6,7-tetrahydro-6-(propylamino)benzothiazole]
